In US10781204B2, “TYK2 inhibitors and uses thereof” (Nimbus Lakshmi, Inc., priority 2015, dated 2020):

What was measured:
TYK2 = TYK2 (Homo sapiens (Human), UniProt P29597); test: Tyk2 radioactive kinase assay; assay type: biochemical; settings: ATP 10 μM
Protocol: (§1) Peptide substrate, [KKSRGDYMTMQIG], (20 μM) is prepared in reaction buffer (20 mM Hepes pH 7.5, 10 mM MgCl2, 1 mM EGTA, 0.02% Brij35, 0.02 mg/mL BSA, 0.1 mM […], 2 mM DTT, 1% DMSO. TYK2 (Invitrogen) kinase is added, followed by compounds in DMSO. ^33PATP is added to initiate the reaction with ATP at 10 μM. Kinase reaction is incubated for 120 min at room temp and reactions are spotted onto P81 ion exchange paper (Whatman #3698-915), and then washed extensively in 0.75% phosphoric acid, prior to reading the radioactivity counts. For JAK2 (Invitrogen) kinase assay the peptide substrate poly[Glu:Tyr] (4:1), 0.2 mg/ml is used, in the reaction carried out the same as for TYK2.

JAK2 = JAK2 (Homo sapiens (Human), UniProt O60674); test: JAK2 radioactive kinase assay; assay type: biochemical; settings: ATP 10 μM
JAK2, sequence (O60674 whole entry): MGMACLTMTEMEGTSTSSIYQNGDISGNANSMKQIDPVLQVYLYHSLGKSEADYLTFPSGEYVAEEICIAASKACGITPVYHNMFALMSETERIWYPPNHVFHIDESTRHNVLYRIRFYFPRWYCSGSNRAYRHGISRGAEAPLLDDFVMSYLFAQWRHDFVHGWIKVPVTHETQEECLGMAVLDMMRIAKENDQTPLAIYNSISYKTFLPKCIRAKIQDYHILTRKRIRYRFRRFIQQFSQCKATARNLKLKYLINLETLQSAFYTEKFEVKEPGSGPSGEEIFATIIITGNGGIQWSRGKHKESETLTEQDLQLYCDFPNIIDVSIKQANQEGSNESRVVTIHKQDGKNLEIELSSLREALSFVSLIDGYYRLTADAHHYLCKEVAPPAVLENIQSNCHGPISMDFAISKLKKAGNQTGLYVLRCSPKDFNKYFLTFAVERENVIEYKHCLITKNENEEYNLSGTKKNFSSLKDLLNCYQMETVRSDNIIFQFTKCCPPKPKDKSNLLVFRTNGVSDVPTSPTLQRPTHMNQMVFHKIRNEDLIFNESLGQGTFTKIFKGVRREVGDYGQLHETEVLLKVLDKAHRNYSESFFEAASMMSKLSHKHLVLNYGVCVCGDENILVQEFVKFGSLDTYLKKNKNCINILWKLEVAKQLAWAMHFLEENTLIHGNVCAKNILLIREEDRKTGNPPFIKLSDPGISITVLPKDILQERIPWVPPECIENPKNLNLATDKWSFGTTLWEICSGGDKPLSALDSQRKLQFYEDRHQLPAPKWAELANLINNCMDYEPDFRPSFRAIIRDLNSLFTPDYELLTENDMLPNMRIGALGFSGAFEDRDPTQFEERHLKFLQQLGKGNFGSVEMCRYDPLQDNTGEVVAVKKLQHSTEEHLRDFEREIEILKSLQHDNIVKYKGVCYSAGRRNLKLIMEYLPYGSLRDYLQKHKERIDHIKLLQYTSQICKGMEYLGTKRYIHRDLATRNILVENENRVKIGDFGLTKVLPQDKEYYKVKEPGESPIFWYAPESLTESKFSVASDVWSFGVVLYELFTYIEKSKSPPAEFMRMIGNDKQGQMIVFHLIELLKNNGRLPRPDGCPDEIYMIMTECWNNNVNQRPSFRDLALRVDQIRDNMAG
Protocol: as §1

TYK2, sequence (P29597 whole entry): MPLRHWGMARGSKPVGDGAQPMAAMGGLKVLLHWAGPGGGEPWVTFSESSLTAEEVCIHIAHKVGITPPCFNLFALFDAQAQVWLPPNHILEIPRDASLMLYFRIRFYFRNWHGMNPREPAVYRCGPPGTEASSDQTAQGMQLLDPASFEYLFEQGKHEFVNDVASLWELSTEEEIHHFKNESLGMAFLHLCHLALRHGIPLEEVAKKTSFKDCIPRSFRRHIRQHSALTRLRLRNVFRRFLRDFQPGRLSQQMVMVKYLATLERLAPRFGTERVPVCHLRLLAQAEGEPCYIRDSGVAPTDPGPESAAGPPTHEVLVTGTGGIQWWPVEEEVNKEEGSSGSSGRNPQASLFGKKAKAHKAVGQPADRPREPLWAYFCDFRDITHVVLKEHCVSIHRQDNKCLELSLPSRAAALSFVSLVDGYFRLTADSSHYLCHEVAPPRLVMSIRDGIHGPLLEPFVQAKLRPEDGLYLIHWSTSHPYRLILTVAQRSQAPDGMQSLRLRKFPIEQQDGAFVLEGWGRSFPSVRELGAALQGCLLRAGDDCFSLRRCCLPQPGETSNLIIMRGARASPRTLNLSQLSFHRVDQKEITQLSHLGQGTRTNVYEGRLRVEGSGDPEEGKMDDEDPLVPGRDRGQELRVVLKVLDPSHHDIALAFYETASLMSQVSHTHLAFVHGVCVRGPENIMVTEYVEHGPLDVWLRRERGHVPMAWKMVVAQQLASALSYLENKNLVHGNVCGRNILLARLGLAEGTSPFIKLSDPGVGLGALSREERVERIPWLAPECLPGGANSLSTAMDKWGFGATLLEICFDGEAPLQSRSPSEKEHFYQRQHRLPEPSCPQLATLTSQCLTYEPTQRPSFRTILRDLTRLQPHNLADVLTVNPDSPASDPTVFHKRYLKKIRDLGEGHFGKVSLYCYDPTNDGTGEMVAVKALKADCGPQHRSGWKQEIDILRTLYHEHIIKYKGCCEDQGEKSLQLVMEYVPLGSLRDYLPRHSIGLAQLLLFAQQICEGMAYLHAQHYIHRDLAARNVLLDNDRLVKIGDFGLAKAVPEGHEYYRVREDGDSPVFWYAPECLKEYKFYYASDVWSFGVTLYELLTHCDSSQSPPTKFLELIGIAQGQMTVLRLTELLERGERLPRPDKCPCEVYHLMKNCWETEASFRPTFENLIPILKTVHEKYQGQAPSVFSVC

| SMILES | Ki (TYK2) [nM] | Ki (JAK2) [nM] |
| --- | --- | --- |
| N#Cc1cccc(F)c1-c1cc(-n2ccc(NCCO)n2)c2c(n1)CNC2=O [I-64, 3-fluoro-2-(4-(3-((2-hydroxyethyl)amino)-1H-pyrazol-1-yl)-5-oxo-6,7-dihydro-5H-pyrrolo[3,4-b]pyridin-2-yl)benzonitrile] | 0.1 to 10 | 10 to 100 |
| CN(C)[C@H]1CC[C@H](Oc2ccn(-c3cc(-c4c(F)cccc4C#N)nc4c3C(=O)NC4)n2)CC1 [I-117, 2-(4-(3-(((1r,4r)-4-(dimethylamino)cyclohexyl)oxy)-1H-pyrazol-1-yl)-5-oxo-6,7-dihydro-5H-pyrrolo[3,4-b]pyridin-2-yl)-3-fluorobenzonitrile] | 0.1 to 10 | 10 to 100 |
| C[C@@H]1CC(O)C[C@@H](C)N1c1ccn(-c2cc(-c3c(F)cccc3C#N)nc3c2C(=O)NC3)n1 (stereo partly drawn) [I-106, 3-fluoro-2-(4-(3-((2R,6R)-4-hydroxy-2,6-dimethylpiperidin-1-yl)-1H-pyrazol-1-yl)-5-oxo-6,7-dihydro-5H-pyrrolo[3,4-b]pyridin-2-yl)benzonitrile] | 10 to 100 | 100 to 1000 |
| N#Cc1cccc(F)c1-c1cc(-n2ccc(CC(=O)O)n2)c2c(n1)CNC2=O [I-102, 2-(1-(2-(2-cyano-6-fluorophenyl)-5-oxo-6,7-dihydro-5H-pyrrolo[3,4-b]pyridin-4-yl)-1H-pyrazol-3-yl)acetic acid] | 10 to 100 | ≥ 1000 |
| N#Cc1cccc(F)c1-c1cc(-n2ccc(N3CCC(C#N)C3)n2)c2c(n1)CNC2=O (stereo not drawn) [I-116, 1-(1-(2-(2-cyano-6-fluorophenyl)-5-oxo-6,7-dihydro-5H-pyrrolo[3,4-b]pyridin-4-yl)-1H-pyrazol-3-yl)pyrrolidine-3-carbonitrile] | 0.1 to 10 | 0.1 to 10 |
| N#Cc1cccc(F)c1-c1cc(-n2ccc(N3CCOCC3=O)n2)c2c(n1)CNC2=O [I-138, 3-fluoro-2-(5-oxo-4-(3-(3-oxomorpholino)-1H-pyrazol-1-yl)-6,7-dihydro-5H-pyrrolo[3,4-b]pyridin-2-yl)benzonitrile] | 0.1 to 10 | 100 to 1000 |
| CCNC(=O)Cc1ccn(-c2cc(-c3c(F)cccc3C#N)nc3c2C(=O)NC3)n1 [I-7, 2-(1-(2-(2-cyano-6-fluorophenyl)-5-oxo-6,7-dihydro-5H-pyrro-lo[3,4-b]pyridin-4-yl)-1H-pyrazol-3-yl)-N-ethylacetamide] | 0.1 to 10 | 100 to 1000 |
| CS(=O)(=O)c1ccn(-c2cc(-c3c(F)cccc3C#N)nc3c2C(=O)NC3)n1 [I-81, 3-fluoro-2-(4-(3-(methylsulfonyl)-1H-pyrazol-1-yl)-5-oxo-6,7-dihydro-5H-pyrrolo[3,4-b]pyridin-2-yl)benzonitrile] | 10 to 100 | ≥ 1000 |
| CN(C)[C@H]1CC[C@H](Nc2ccn(-c3cc(-c4c(F)cccc4C#N)nc4c3C(=O)NC4)n2)CC1 [I-67, 2-(4-(3-(((1r,4r)-4-(dimethylamino)cyclohexyl)amino)-1H-pyrazol-1-yl)-5-oxo-6,7-dihydro-5H-pyrrolo[3,4-b]pyridin-2-yl)-3-fluorobenzonitrile] | 0.1 to 10 | 10 to 100 |
| [2H]C([2H])([2H])O[C@H]1CN(c2ccn(-c3cc(-c4c(F)cccc4C#N)nc4c3C(=O)NC4)n2)C[C@H]1O [I-199, 3-fluoro-2-(4-(3-((3R,4S)-3-hydroxy-4-(methoxy-d3)pyrrolidin-1-yl)-1H-pyrazol-1-yl)-5-oxo-6,7-dihydro-5H-pyrrolo[3,4-b]pyridin-2-yl)benzonitrile] | 0.1 to 10 | 10 to 100 |
| N#Cc1cccc(F)c1-c1cc(-n2ccc(N3CCC(N4CCCC4)CC3)n2)c2c(n1)CNC2=O [I-66, 3-fluoro-2-(5-oxo-4-(3-(4-(pyrrolidin-1-yl)piperidin-1-yl)-1H-pyrazol-1-yl)-6,7-dihydro-5H-pyrrolo[3,4-b]pyridin-2-yl)benzonitrile] | 0.1 to 10 | 10 to 100 |
| O=C1NCc2nc(-c3c(F)cccc3F)cc(-n3ccc(N4CCOCC4)n3)c21 [I-1, 2-(2,6-difluorophenyl)-4-(3-morpholino-1H-pyrazol-1-yl)-6,7-dihydro-5H-pyrrolo[3,4-b]pyridin-5-one] | 0.1 to 10 | 100 to 1000 |
| N#Cc1cccc(F)c1-c1cc(-n2ccc(N3CCC4(CCNC4=O)C3)n2)c2c(n1)CNC2=O (stereo not drawn) [I-146, 3-fluoro-2-(5-oxo-4-(3-(6-oxo-2,7-diazaspiro[4.4]nonan-2-yl)-1H-pyrazol-1-yl)-6,7-dihydro-5H-pyrrolo[3,4-b]pyridin-2-yl)benzonitrile] | 0.1 to 10 | 10 to 100 |
| CC1(O)CN(c2ccn(-c3cc(-c4c(F)cccc4C#N)nc4c3C(=O)NC4)n2)CC[C@H]1O (stereo partly drawn) [I-108, 2-(4-(3-((4R)-3,4-dihydroxy-3-methylpiperidin-1-yl)-1H-pyrazol-1-yl)-5-oxo-6,7-dihydro-5H-pyrrolo[3,4-b]pyridin-2-yl)-3-fluorobenzonitrile] | 0.1 to 10 | 0.1 to 10 |
| O=C1NCc2nc(-c3c(F)cccc3F)cc(-n3cccn3)c21 [I-58, 2-(2,6-difluorophenyl)-4-(1H-pyrazol-1-yl)-6,7-dihydro-5H-pyrrolo[3,4-b]pyridin-5-one] | 10 to 100 | 100 to 1000 |
| C[C@]1(O)CN(c2ccn(-c3cc(-c4c(F)cccc4C#N)nc4c3C(=O)NC4)n2)C[C@@](C)(O)C1 [I-144, 2-(4-(3-((3S,5R)-3,5-dihydroxy-3,5-dimethylpiperidin-1-yl)-1H-pyrazol-1-yl)-5-oxo-6,7-dihydro-5H-pyrrolo[3,4-b]pyridin-2-yl)-3-fluorobenzonitrile] | 10 to 100 | 100 to 1000 |
| CC1(O)CCN(c2ccn(-c3cc(-c4c(F)cccc4C#N)nc4c3C(=O)NC4)n2)C1 (stereo not drawn) [I-87, 3-fluoro-2-(4-(3-(3-hydroxy-3-methylpyrrolidin-1-yl)-1H-pyrazol-1-yl)-5-oxo-6,7-dihydro-5H-pyrrolo[3,4-b]pyridin-2-yl)benzonitrile] | 0.1 to 10 | 10 to 100 |
| CO[C@H]1CN(c2ccn(-c3cc(-c4c(F)cccc4C#N)nc4c3C(=O)NC4)n2)C[C@H]1O [I-143, 3-fluoro-2-(4-(3-((3R,4S)-3-hydroxy-4-methoxypyrrolidin-1-yl)-1H-pyrazol-1-yl)-5-oxo-6,7-dihydro-5H-pyrrolo[3,4-b]pyridin-2-yl)benzonitrile] | 0.1 to 10 | 0.1 to 10 |
| N#Cc1cccc(F)c1-c1cc(-n2ccc(N3CC[C@H](F)[C@H](O)C3)n2)c2c(n1)CNC2=O [I-174, 3-fluoro-2-(4-(3-((3R,4S)-4-fluoro-3-hydroxypiperidin-1-yl)-1H-pyrazol-1-yl)-5-oxo-6,7-dihydro-5H-pyrrolo[3,4-b]pyridin-2-yl)benzonitrile] | 0.1 to 10 | 10 to 100 |
| CN1CC(S(=O)(=O)N2CCN(c3ccn(-c4cc(-c5c(F)cccc5C#N)nc5c4C(=O)NC5)n3)CC2)C1 [I-99, 3-fluoro-2-(4-(3-(4-((1-methylazetidin-3-yl)sulfonyl)piperazin-1-yl)-1H-pyrazol-1-yl)-5-oxo-6,7-dihydro-5H-pyrrolo[3,4-b]pyridin-2-yl)benzonitrile] | ≥ 1000 | ≥ 1000 |
| N#Cc1cccc(F)c1-c1cc(-n2ccc(CCO)n2)c2c(n1)CNC2=O [I-94, 3-fluoro-2-(4-(3-(2-hydroxyethyl)-1H-pyrazol-1-yl)-5-oxo-6,7-dihydro-5H-pyrrolo[3,4-b]pyridin-2-yl)benzonitrile] | 10 to 100 | 100 to 1000 |
